Tests used:
[1] = test system: HMGB1 secretion by RAW 264.7 cells; experiment: HMGB1 secretion by LPS-stimulated RAW 264.7 cells (Western blot); type: cell-based, murine; conditions: LPS 1 μg/ml, 48 or 72 h, Western blot of supernatant
Experimental: Equal volumes of cell culture supernatants were mixed with Laemmli buffer (20% glycerol, 10% beta-mercaptoethanol, 5% SDS, 0.2 M Tris.HCl, pH 6.8, and 0.4% bromophenol blue). After boiling for 10 min, the samples were subjected to 10% SDS-polyacrylamide gel electrophoresis. The resolved proteins were transferred to Hybond™-P polyvinylidene difluoride membranes (GE Healthcare, Chalfont St. Giles, UK), and blocked with bovine lacto-transfer optimizer buffer (1×PBS, 5% nonfat milk, and 0.05% Tween® 20) for 1 h. The membranes were incubated overnight at 4° C. with a 1:2000 dilution of rabbit polyclonal anti-HMGB1 antibody (generously provided by Dr. Michael T. Lotze, University of Pittsburgh) in blocking buffer. After washing three times in 1×PBST (1×PBS with 0.3% Triton X-100), immunoblots were exposed at room temperature for 1 h to a 1:20,000 dilution of horseradish peroxidase-conjugated goat anti-rabbit secondary antibody (Sigma-Aldrich, St. Louis, Mo.). After washing three times with 1×PBST, the membranes were illuminated with the ECL Plus™ substrate (GE Healthcare) and the X-ray films exposed, according to the manufacturer's instructions.
RAW 264.7 cells were cultured in the absence or presence of LPS (1 μg/ml). Some cells were co-incubated with graded concentrations of XJB-5-131. […]

[2] = test system: LPS-induced NO production in RAW 264.7 cells; experiment: Nitric oxide secretion (nitrite assay) by LPS-stimulated RAW 264.7 cells; type: cell-based, murine; conditions: for NO secretion by LPS-stimulated RAW 264.7 cells: graded concentrations, added 1 h before LPS, 24 hours
Experimental: RAW 264.7 cells were obtained from the American Type Culture Collection (Manassas, Va.). Cells were maintained in DMEM supplemented with 10% FBS, 100 units/ml penicillin, and 100 μg/ml streptomycin at 37° C. in a humidified incubator (5% CO2, 95% air). For stimulation experiments, cells were transferred to 24-well polystyrene culture plates (Corning Life Sciences, Corning, N.Y.) at 0.3 or 1×10^6 cells/well (depending on the experiment) in 1 ml of medium per well. After overnight incubation, the medium was removed and replaced with DMEM containing 0.25% FBS. Cells were stimulated by adding 0.1 μg/ml to 1 μg/ml Escherichia coli 0111:B4 lipopolysaccharide (LPS) in the presence or absence of graded concentrations of XJB-5-131 or XJB-5-208.
(§1) Nitrite (NO2^−) concentrations were measured in cell supernatants and blood serum as an indicator of nitric oxide (.NO) production, where .NO readily oxidize into nitrites (NO2^−) and nitrates (NO3^−). The total concentration of .NO was determined by reducing NO3^− to NO2^− using cadmium and detecting NO2^− using the Greiss reagent and potassium nitrite as a standard.
(§2) Samples (200 μL) were incubated with 30% zinc sulfate to precipitate proteins and then centrifuged (4° C., 12,000 g, 5 min). Supernatants were added to 0.6 g activated cadmium (previously washed twice with each deionized H2O, 0.1 M HCl, and 0.1 NH4OH) and allowed to shake overnight at room temperature. The supernatants were removed. Greiss reagent (100 μL) was mixed with an equal volume of supernatant. Reaction between the Greiss reagent and NO2^−) yielded an azo dye that can be detected spectrophotometrically. Absorbance was measured at 550 nm using a Packard Fusion™ microplate reader (PerkinElmer, Wellesley, Mass.).
RAW 264.7 murine macrophage-like cells were incubated in the presence or absence of graded concentrations of XJB-5-131 or XJB-5-208. Concentrations of either XJB-5-131 or XJB-5-208 were dissolved in dimethyl sulfoxide (DMSO). During these experiments, the highest concentration of DMSO remaining in the cell culture was 0.18% (v/v). […]

[3] = test system: C57B1/6J mice challenged with LPS; experiment: Plasma nitrite/nitrate in LPS-challenged mice; type: in vivo; design: unit not given here; conditions: 2 μmol/kg 60 min before i.p. LPS 15 mg/kg, blood 24 h after LPS, LPS alone 321.8±70.1, control 41.8±7.0, mean±SEM, p<0.05
Experimental: as §1, §2
All experiments using mice followed the guidelines for the use of experimental animals of the U.S. National Institutes of Health and were approved by the Institutional Animal Care and Use Committee at the University of Pittsburgh. […]

[4] = test system: iNOS mRNA in RAW 264.7 cells; experiment: iNOS mRNA expression in LPS-stimulated RAW 264.7 cells (real-time RT-PCR); type: cell-based, mouse; conditions: LPS 100 ng/ml, 24 hours; for LPS-induced iNOS mRNA up-regulation: RT-PCR
Experimental: RAW 264.7 cells and liver tissue specimens were lysed with TRI-Reagent® (Molecular Research Center, Cincinnati, Ohio). Bromochloropropane (0.5 mL) was added in order to extract total RNA. After vigorous agitation and centrifugation (4° C., 12,000 g, 12 min), the aqueous phase containing RNA was collected. The RNA was precipitated with isopropanol (0.5 mL). The pellet was washed with 75% ethanol (1 mL) and centrifuged (4° C., 12,000 g, 5 min) twice, and then dissolved in RNA-free water. Total RNA was quantified using UV spectrophotometry (GeneQuant™ pro, GE Healthcare). Extracted RNAs (1 μg/reaction) were converted to single-strand cDNAs in a 20 μL volume reaction, using the Reverse Transcriptase System Kit (Promega, Madison, Wis.) as directed by the manufacturer. In a Gene Amp® PCR System 9700 (Applied Biosystems, Foster City, Calif.), the mixture was heated to 70° C. for 10 min, maintained at 42° C. for 30 min, and then heated to 95° C. for 5 min to terminate the reaction. TaqMan® Gene Expression Assays (Applied Biosystems) for 18S (endogenous control) and mouse iNOS were used. Reaction mixtures for PCR were assembled as follows: 10 μL TaqMan® Universal PCR Master Mix (Applied Biosystems), 1 μL of each assay, 5 μL cDNA template, and 3 μL of water. PCR reactions were performed in a thermocycler 7300 Real Time PCR System (Applied Biosystems) under recommended conditions (50° C. for 2 min; 95° C. for 10 min; 95° C. for 15 s; 60° C. for 1 min). The two last steps were repeated for 40 cycles. […] The ΔC^T relative quantification method was used to calculate mRNA levels for iNOS in the samples, as previously described (Scharte M, Han X, Bertges D J et al. Cytokines induce HIF-1 DNA binding and the expression of HIF-1-dependent genes in cultured rat enterocytes. Am J Physiol Gastrointest Liver Physiol 2003, 284:G373-G384). […]
RAW 264.7 cells were incubated in presence or absence of graded concentrations of XJB-5-131 or XJB-5-208. […] After 24 hours, steady-state levels of iNOS mRNA were measured using real-time quantitative RT-PCR.

[5] = test system: iNOS mRNA in hepatic tissue of LPS-challenged mice; experiment: Hepatic iNOS mRNA expression in LPS-challenged mice; type: in vivo; conditions: 2 μmol/kg 1 h before i.p. LPS 15 mg/kg, 24 h after LPS, RT-PCR
Experimental: RAW 264.7 cells and liver tissue specimens were lysed with TRI-Reagent® (Molecular Research Center, Cincinnati, Ohio). Bromochloropropane (0.5 mL) was added in order to extract total RNA. After vigorous agitation and centrifugation (4° C., 12,000 g, 12 min), the aqueous phase containing RNA was collected. The RNA was precipitated with isopropanol (0.5 mL). The pellet was washed with 75% ethanol (1 mL) and centrifuged (4° C., 12,000 g, 5 min) twice, and then dissolved in RNA-free water. Total RNA was quantified using UV spectrophotometry (GeneQuant™ pro, GE Healthcare). Extracted RNAs (1 μg/reaction) were converted to single-strand cDNAs in a 20 μL volume reaction, using the Reverse Transcriptase System Kit (Promega, Madison, Wis.) as directed by the manufacturer. […] The ΔC^T relative quantification method was used to calculate mRNA levels for iNOS in the samples, as previously described (Scharte M, Han X, Bertges D J et al. Cytokines induce HIF-1 DNA binding and the expression of HIF-1-dependent genes in cultured rat enterocytes. Am J Physiol Gastrointest Liver Physiol 2003, 284:G373-G384). […]
Mice were randomly pretreated with a solution containing XJB-5-131 (2 μmol/kg) or a similar volume (2 ml/kg) of vehicle, a 67:33 (v/v) mixture of DMSO and normal saline. […] Subsequently, iNOS mRNA expression was measured, using quantitative real-time RT-PCR. […]

For CC(C)C[C@@H](/C=C/[C@H](Cc1ccccc1)C(=O)N1CCC[C@H]1C(=O)N[C@H](C(=O)N[C@@H](CCCNC(=O)OCc1ccccc1)C(=O)NC1CC(C)(C)N([O])C(C)(C)C1)C(C)C)NC(=O)OC(C)(C)C [XJB-5-131, N-Boc-Leu-[(E)-CH═CH]-^DPhe-Pro-Val-Orn(Cbz)-N-TEMPO], the “LPS-induced HMGB1 secretion” value [1] was “inhibited LPS-induced HMGB1 secretion in a concentration-dependent fashion”, the IC50 ([2]; Mus musculus, RAW264.7, 24 h, RAW 264.7 cells, LPS 100 or 1000 ng/ml, NO2- plus NO3- in supernatant, approximate, read-out: IC50 for inhibition of LPS-induced NO production) was about 3000 nM and the “NO secretion by LPS-stimulated RAW 264.7 cells” value [2] was “significantly reduced”. The “concentration of nitrites within blood plasma” value [3] was 179.5±34.6, the “Potency in inhibiting LPS-induced iNOS up-regulation, relative to XJB-5-208” value [4] was “more potent” and the “LPS-induced iNOS mRNA up-regulation” value [4] was “inhibited LPS-induced iNOS up-regulation”. The “iNOS expression in liver samples” value [5] was “attenuated iNOS expression in liver samples”.

In the case of “N-Boc-Leu-[(E)-CH═CH]-^DPhe-N-TEMPO [XJB-5-208]”, the “NO secretion by LPS-stimulated RAW 264.7 cells” value [2] is reported as “significantly reduced” and the “LPS-induced iNOS mRNA up-regulation” value [4] is reported as “inhibited LPS-induced iNOS up-regulation”.

— patent US8487079B2, “Use of mitochondria-targeted electron scavengers as anti-inflammatory agents” (University of Pittsburgh—Of the Commonwealth System of …, priority 2007, dated 2013)
